Among the data in US8877707B2, “Inhibitors of HCV NS5A” (Presidio Pharmaceuticals, Inc., priority 2010, dated 2014) are EC50 values, retold here.

pEC50: −log10 of the molar value.

The subject of this experiment is HCV genotype 1b replicon in Huh 7 cells. The experiment can be described thus: HCV replicon assay (1b_Huh-Luc/Neo-ET cell line, luciferase readout). In kind it is cell-based. Particulars: Hepatitis C virus; Table 1; genotype 1b replicon, Huh 7 cells, 72 h, luciferase; read-out: Inhibition of HCV genotype 1b. A digest of the protocol: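 Huh 7 cells carrying a bicistronic genotype 1b luciferase replicon were treated with compound in triplicate the day after plating and incubated 72 h. Luciferase activity expressed as % of untreated control; EC50 from a four-parameter logistic fit, repeated several times.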

Regarding `COC(=O)N[C@H](C(=O)N1CCC[C@H]1c1ncc(-c2ccc(-c3ccc4cc(-c5cnc([C@@H]6CCCN6C(=O)[C@@H](NC(=O)OC)C6CCCC6)[nH]5)ccc4c3)cc2)[nH]1)C1CCCC1` [compound 172], the pEC50 is more than 9.00.
Take `CC[C@H](NC(=O)OC)C(=O)N1CCC[C@H]1c1ncc(-c2ccc(-c3ccc4cc(-c5cnc([C@@H]6CCCN6C(=O)[C@H](CC)NC(=O)OC)[nH]5)ccc4c3)cc2)[nH]1` [compound 173]: the pEC50 is more than 9.00.
The value for `COC(=O)N[C@H](C(=O)N1CCC[C@H]1c1ncc(-c2ccc3cc(-c4ccc5nc([C@@H]6CCCN6C(=O)[C@@H](NC(=O)OC)C(C)C)[nH]c5c4)ccc3c2)[nH]1)C(C)C` [compound 174] was more than 9.00; that for `COC(=O)N[C@H](C(=O)N1CCC[C@H]1c1ncc(-c2ccc3cc(-c4ccc5nc([C@@H]6CCCN6C(=O)[C@@H](NC(=O)OC)[C@@H](C)O)[nH]c5c4)ccc3c2)[nH]1)[C@@H](C)O` [compound 175] was more than 9.00.
The value for `COC(=O)N[C@H](C(=O)N1CCC[C@H]1c1ncc(-c2ccc3cc(-c4ccc5nc([C@@H]6CCCN6C(=O)[C@@H](NC(=O)OC)[C@@H](C)OC)[nH]c5c4)ccc3c2)[nH]1)[C@@H](C)OC` [compound 176] was more than 9.00; that for `COC(=O)N[C@H](C(=O)N1CCC[C@H]1c1ncc(-c2ccc3cc(-c4ccc5nc([C@@H]6CCCN6C(=O)[C@@H](c6ccccc6)N(C)C)[nH]c5c4)ccc3c2)[nH]1)C(C)C` [compound 177] was more than 9.00; that for `COC(=O)N[C@H](C(=O)N1CCC[C@H]1c1nc2ccc(-c3ccc4cc(-c5cnc([C@@H]6CCCN6C(=O)[C@@H](c6ccccc6)N6CCCC6)[nH]5)ccc4c3)cc2[nH]1)C(C)C` [compound 178] was more than 9.00.
For `COC(=O)N[C@H](C(=O)N1CCC[C@H]1c1nc2ccc(-c3ccc4cc(-c5cnc([C@@H]6CCCN6C(=O)[C@H](NC(=O)OC)c6ccccc6)[nH]5)ccc4c3)cc2[nH]1)C(C)C` [compound 179], the pEC50 is more than 9.00.
The value for `COC(=O)N[C@H](C(=O)N1CCC[C@H]1c1ncc(-c2ccc3cc(-c4ccc5nc([C@@H]6CCCN6C(=O)[C@@H](c6ccccc6)N6CCCC6)[nH]c5c4)ccc3c2)[nH]1)C(C)C` [compound 180] was more than 9.00; that for `COC(=O)N[C@H](C(=O)N1CCC[C@H]1c1ncc(-c2ccc3cc(-c4ccc5nc([C@@H]6CCCN6C(=O)[C@H](NC(=O)OC)c6ccccc6)[nH]c5c4)ccc3c2)[nH]1)C(C)C` [compound 181] was more than 9.00; that for `COC(=O)N[C@H](C(=O)N1CCC[C@H]1c1nc2ccc(-c3ccc4cc(-c5cnc([C@@H]6CCCN6C(=O)[C@@H](c6ccccc6)N(C)C)[nH]5)ccc4c3)cc2[nH]1)C(C)C` [compound 182] was more than 9.00.
In the case of `COC(=O)N[C@H](C(=O)N1CCC[C@H]1c1nc2ccc(-c3ccc4cc(-c5cnc([C@@H]6CCCN6C(=O)[C@H](NC(=O)N6CC[C@H](O)C6)c6ccccc6)[nH]5)ccc4c3)cc2[nH]1)C(C)C` [compound 183], the pEC50 was more than 9.00.
Turning to `COC(=O)N[C@H](C(=O)N1CCC[C@H]1c1ncc(-c2ccc3cc(-c4ccc5nc([C@@H]6CCCN6C(=O)[C@H](NC(=O)N6CC[C@H](O)C6)c6ccccc6)[nH]c5c4)ccc3c2)[nH]1)C(C)C` [compound 185], the pEC50 was more than 9.00.
For the compound `CNC(=O)N[C@@H](C(=O)N1CCC[C@H]1c1ncc(-c2ccc3cc(-c4ccc5nc([C@@H]6CCCN6C(=O)[C@@H](NC(=O)OC)C(C)C)[nH]c5c4)ccc3c2)[nH]1)c1ccccc1` [compound 186], the pEC50 is more than 9.00.
Under `COC(=O)N[C@H](C(=O)N1CCC[C@H]1c1ncc(-c2cnc3cc(-c4ccc5nc([C@@H]6CCCN6C(=O)[C@@H](NC(=O)OC)C(C)C)[nH]c5c4)ccc3c2)[nH]1)C(C)C` [compound 187] stands more than 9.00; under `COC(=O)N[C@H](C(=O)N1CCC[C@H]1c1ncc(-c2cnc3cc(-c4ccc5nc([C@@H]6CCCN6C(=O)[C@H](NC(=O)OC)c6ccccc6)[nH]c5c4)ccc3c2)[nH]1)C(C)C` [compound 188], 8.00 to 9.00.
For `COC(=O)N[C@H](C(=O)N1CCC[C@H]1c1ncc(-c2ccc3cc(-c4ccc5nc([C@@H]6CCCN6C(=O)[C@@H](NC(=O)OC)C6CCOCC6)[nH]c5c4)ccc3c2)[nH]1)C(C)C` [compound 189], the pEC50 is more than 9.00.
`COC(=O)N[C@H](C(=O)N1CCC[C@H]1c1nc2ccc(-c3ccc4cc(-c5cnc([C@@H]6CCCN6C(=O)[C@@H](NC(=O)OC)C6CCOCC6)[nH]5)ccc4c3)cc2[nH]1)C(C)C` [compound 190]: the pEC50 was more than 9.00.
`COC(=O)N[C@H](C(=O)N1CCC[C@H]1c1nc2ccc(-c3ccc4cc(-c5cnc([C@@H]6CCCN6C(=O)[C@@H](NC(=O)OC)C6CCOCC6)[nH]5)cnc4c3)cc2[nH]1)C(C)C` [compound 191]: the pEC50 was more than 9.00.
`COC(=O)N[C@H](C(=O)N1CCC[C@H]1c1ncc(-c2cnc3cc(-c4ccc5nc([C@@H]6CCCN6C(=O)[C@@H](NC(=O)OC)C6CCOCC6)[nH]c5c4)ccc3c2)[nH]1)C(C)C` [compound 192]: the pEC50 was more than 9.00.
Under `COC(=O)N[C@H](C(=O)N1CCC[C@H]1c1ncc(-c2ccc3nc(-c4ccc5nc([C@@H]6CCCN6C(=O)[C@@H](NC(=O)OC)C(C)C)[nH]c5c4)ccc3c2)[nH]1)C(C)C` [compound 193] stands more than 9.00.
The value for `COC(=O)N[C@H](C(=O)N1CCC[C@H]1c1nc2ccc(-c3ccc4cc(-c5cnc([C@@H]6CCCN6C(=O)[C@@H](NC(=O)OC)C6CCOCC6)[nH]5)ccc4n3)cc2[nH]1)C(C)C` [compound 194] was more than 9.00; that for `COC(=O)N[C@H](C(=O)N1CCC[C@H]1c1nc2ccc(-c3ccc4cc(-c5cnc([C@@H]6CCCN6C(=O)[C@H](NC(=O)OC)c6ccccc6)[nH]5)cnc4c3)cc2[nH]1)C(C)C` [compound 195] was more than 9.00.
On to `COC(=O)N[C@H](C(=O)N1CCC[C@H]1c1nc2ccc(-c3ccc4cc(-c5cnc([C@@H]6CCCN6C(=O)[C@H](NC(=O)OC)c6ccccc6)[nH]5)ccc4n3)cc2[nH]1)C(C)C` [compound 196], for which the pEC50 is more than 9.00.
As to `COC(=O)N[C@H](C(=O)N1CCC[C@H]1c1ncc(-c2ccc3nc(-c4ccc5nc([C@@H]6CCCN6C(=O)[C@H](NC(=O)OC)c6ccccc6)[nH]c5c4)ccc3c2)[nH]1)C(C)C` [compound 197], the pEC50 was more than 9.00.
The value for `COC(=O)N[C@H](C(=O)N1CCC[C@H]1c1ncc(-c2ccc3cc(-c4ccc5nc([C@@H]6CCCN6C(=O)[C@@H](NC(=O)OC)C(C)C)[nH]c5n4)ccc3c2)[nH]1)C(C)C` [compound 198] was more than 9.00.
As for `COC(=O)N[C@H](C(=O)N1CCC[C@H]1c1ncc(-c2ccc3cc(-c4ccc5nc([C@@H]6CCCN6C(=O)[C@H](NC(=O)OC)c6ccccc6)[nH]c5n4)ccc3c2)[nH]1)C(C)C` [compound 199], the pEC50 is more than 9.00.
For the compound `COC(=O)N[C@H](C(=O)N1CCC[C@H]1c1nc2ccc(-c3ccc4cc(-c5cnc([C@@H]6CCCN6C(=O)[C@H](NC(=O)OC)c6ccccc6)[nH]5)ccc4c3)nc2[nH]1)C(C)C` [compound 200], the pEC50 is more than 9.00.
Regarding `COC(=O)N[C@H](C(=O)N1CCC[C@H]1c1nc2ccc(-c3ccc4cc(-c5cnc([C@@H]6CCCN6C(=O)[C@@H](NC(=O)OC)C6CCOCC6)[nH]5)ccc4c3)nc2[nH]1)C(C)C` [compound 201], the pEC50 is more than 9.00.
`COC(=O)N[C@H](C(=O)N1CCC[C@H]1c1ncc(-c2ccc3cc(-c4ccc5nc([C@@H]6CCCN6C(=O)[C@@H](NC(=O)OC)C6CCOCC6)[nH]c5n4)ccc3c2)[nH]1)C(C)C` [compound 202]: the pEC50 is more than 9.00.
In the case of `COC(=O)N[C@H](C(=O)N1CCC[C@H]1c1ncc(-c2ccc3cc(-c4ccc5nc([C@@H]6CCCN6C(=O)[C@@H](NC(=O)OC)C6CCOCC6)[nH]c5c4)ccc3c2)[nH]1)C1CCOCC1` [compound 203], the pEC50 was more than 9.00.
Under `COC(=O)N[C@H](C(=O)N1CCC[C@H]1c1ncc(-c2ccc3cc(-c4ccc5nc([C@@H]6CCCN6C(=O)[C@@H](NC(=O)OC)C(C)C)[nH]c5c4)ncc3c2)[nH]1)C(C)C` [compound 204] stands more than 9.00; under `COC(=O)N[C@H](C(=O)N1CCC[C@H]1c1ncc(-c2ccc3cc(-c4ccc5nc([C@@H]6CCCN6C(=O)[C@@H](NC(=O)OC)C6CCOCC6)[nH]c5n4)ccc3c2)[nH]1)C1CCOCC1` [compound 205], more than 9.00.
With `COC(=O)N[C@H](C(=O)N1CCC[C@H]1c1ncc(-c2ccc3nc(-c4ccc5nc([C@@H]6CCCN6C(=O)[C@@H](NC(=O)OC)C6CCOCC6)[nH]c5c4)ccc3c2)[nH]1)C1CCOCC1` [compound 206], the pEC50 was 8.00 to 9.00.
The value for `COC(=O)N[C@H](C(=O)N1CCC[C@H]1c1ncc(-c2cccc3c(-c4ccc5nc([C@@H]6CCCN6C(=O)[C@@H](NC(=O)OC)C(C)C)[nH]c5c4)cccc23)[nH]1)C(C)C` [compound 207] was more than 9.00; that for `COC(=O)N[C@H](C(=O)N1CCC[C@H]1c1nc2ccc(-c3cccc4c(-c5cnc([C@@H]6CCCN6C(=O)[C@H](NC(=O)OC)c6ccccc6)[nH]5)cccc34)cc2[nH]1)C(C)C` [compound 208] was more than 9.00; that for `COC(=O)N[C@H](C(=O)N1CCC[C@H]1c1ncc(-c2ccc3cc(-c4ccc5nc([C@@H]6CCCN6C(=O)[C@@H](NC(=O)OC)C(C)C)[nH]c5c4)ccc3n2)[nH]1)C(C)C` [compound 209] was more than 9.00.
For `COC(=O)N[C@H](C(=O)N1CCC[C@H]1c1nc2ccc(-c3ccc4nc(-c5cnc([C@@H]6CCCN6C(=O)[C@H](NC(=O)OC)c6ccccc6)[nH]5)ccc4c3)cc2[nH]1)C(C)C` [compound 210], the pEC50 was more than 9.00.
The value for `COC(=O)N[C@H](C(=O)N1CCC[C@H]1c1nc2ccc(-c3ccc4nc(-c5cnc([C@@H]6CCCN6C(=O)[C@@H](NC(=O)OC)C6CCOCC6)[nH]5)ccc4c3)cc2[nH]1)C(C)C` [compound 211] was more than 9.00; that for `COC(=O)N[C@H](C(=O)N1CCC[C@H]1c1nc2ccc(-c3ccc4cc(-c5cnc([C@@H]6CCCN6C(=O)[C@H](NC(=O)OC)c6ccccc6)[nH]5)ccc4c3)cc2[nH]1)C1CCOCC1` [compound 212] was more than 9.00.
